# Data: the supplement of paper PMC10307832
# Compound: CC(C)(C)c1cc(NC(=O)Nc2ccc(-c3cn4c(n3)sc3cc(OCCN5CCOCC5)ccc34)cc2)no1 [Quizartinib] + COc1cc2c(Oc3ccc(NC(=O)C4(C(=O)Nc5ccc(F)cc5)CC4)cc3F)ccnc2cc1OCCCN1CCOCC1 [Foretinib] (partner 0.25 µM)
# Assay: relative viability (nuclei count vs DMSO), 5 days (fraction); higher = more cells survive
# Conditions: first compound 0.1 µM
# Procedure, shortened: (§1)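 Lung cancer cell lines in 1536-well plates got either a single drug or a fixed anchor-drug dose together with five library-drug doses (not always all listed) in √10 steps, by pin tool, on the day after seeding. Nuclei were counted after 5 days, and relative viability is the treated-to-vehicle ratio of nuclei counts. Values are medians of duplicate plates.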
row,Cell Line,relative viability
1,PC-14,0.971
2,NCI-H1993,0.792
3,NCI-H2405,1.07
4,NCI-H3122,0.965
5,A-427,0.957
6,LOU-NH91,1.02
7,NCI-H596,0.754
8,NCI-H1666,1.02
9,NCI-H23,0.819
10,NCI-H838,0.684
11,NCI-H322M,0.954
12,NCI-H1793,0.729
13,NCI-H441,0.914
14,NCI-H727,0.871
15,201T,1.01
16,NCI-H1755,0.822
17,NCI-H2085,0.883
18,NCI-H460,0.976

# Compound: CC(C)(C)c1cc(NC(=O)Nc2ccc(-c3cn4c(n3)sc3cc(OCCN5CCOCC5)ccc34)cc2)no1 [Quizartinib] + Cc1cc(Nc2cc(N3CCN(C)CC3)nc(Sc3ccc(NC(=O)C4CC4)cc3)n2)n[nH]1 [Tozasertib] (partner 0.1 µM)
# Assay: as above
# Conditions: first compound 0.001 µM
# Procedure, shortened: as §1
row,Cell Line,relative viability
1,NCI-H2347,0.547
2,LCLC-103H,0.391
3,ABC-1,0.184
4,NCI-H1734,0.237
5,HCC-78,0.453
6,NCI-H1975,0.71
7,NCI-H1944,0.291
8,NCI-H2126,0.751
9,EMC-BAC-2,0.262
10,NCI-H2170,0.665
11,NCI-H358,0.0852
12,CAL-12T,0.32
13,LK-2,0.133
14,HOP-62,0.358
15,PC-14,0.555
16,NCI-H1993,0.589
17,NCI-H2405,0.742
18,LOU-NH91,0.472
19,NCI-H596,0.642
20,NCI-H1666,0.56
21,NCI-H838,0.249
22,NCI-H322M,0.393
23,NCI-H1793,0.329
24,NCI-H441,0.66
25,NCI-H727,0.594
26,201T,0.878
27,NCI-H1755,0.583
28,NCI-H2085,0.679
29,NCI-H460,0.4

# Same assay, conditions: first compound 0.003162 µM
row,Cell Line,relative viability
1,NCI-H2347,0.419
2,LCLC-103H,0.47
3,ABC-1,0.179
4,NCI-H1734,0.288
5,HCC-78,0.325
6,HCC-15,0.429
7,HARA,0.101
8,NCI-H1975,0.809
9,NCI-H1944,0.264
10,NCI-H2126,0.848
11,EMC-BAC-2,0.259
12,NCI-H2170,0.654
13,NCI-H358,0.0998
14,CAL-12T,0.283
15,HOP-62,0.363
16,PC-14,0.551
17,NCI-H1993,0.645
18,NCI-H2405,0.722
19,NCI-H3122,0.368
20,A-427,0.204
21,LOU-NH91,0.693
22,NCI-H596,0.838
23,NCI-H1666,0.594
24,NCI-H23,0.343
25,NCI-H838,0.22
26,NCI-H322M,0.468
27,NCI-H1793,0.289
28,NCI-H441,0.599
29,NCI-H727,0.654
30,201T,0.858
